In experiment [1] the test system is peptide-loaded target cells (C1R-A24, RA24, T2). Nature of the experiment: 51Cr release assay of PBMC killing activity against peptide-loaded target cells. The experiment is classed as cell-based, human. Here is the method: Target cells were labeled with ^51Cr and loaded with HLA-binding peptide of interest. 5,000 or 10,000 cells/well of target cells were placed in 96-well U-bottom plate, and then, PBMCs having been stimulated twice in vitro were added thereto as a responder. Cells were incubated at 37° C. for 5 hours and ^51Cr released from the damaged cells during the incubation was measured, and % specific lysis was calculated. As target cells C1R-A24 or RA24 cells were used as a target when reactivity to HLA-A*2402 binding peptides were examined, and T2 cells were used as a target and incubation was carried out for 2 hours after addition of responder cells. Percent specific lysis was calculated as follows. % specific lysis=(test release-spontaneous release)/(total release-spontaneous release)×100.

The subject of experiment [2] is W10-specific CD8 positive T cells. Nature of the experiment: HLA-A24 tetramer flow cytometry of peptide-specific T cells. The experiment is classed as cell-based, human. The note with it: patient KB07-006, PBMCs incubated with W10 peptide. Here is the method:
HLA-A24 tetramer was prepared by modifying a method by Altman et al. (Altman, J D, Moss, P A., Goulder, P J, Barouch, D H, McHeyzer-Williams, M G, Bell, J I, McMichael, A J, Davis, M M. Phenotypic analysis of antigen-specific T lymphocytes. Science […] 274, 94-96.)
HLA-A24 tetramer was prepared by expressing an HLA-A*2402 molecule in E. coli and W10 peptide was bound thereto. Furthermore, the C-terminus of the complex was modified by a site-specific biotinyltion. The product was then complexed with streptavidin (SA), giving rise to a molecular assembly consisting of 4 molecules of W10-bound HLA-A*2402 molecules and 1 SA.
Here in this assay, T cells specific for a HLA-A24-W10 complex was fluorescently labeled with […] (phycoerythrin) conjugated SA and antigen specific T cells were identified by flow cytometry.
cDNAs of HLA-A*2402, which is an H-chain constituting an HLA-A*2402 molecule, and human β2m 02-microglobulin) which is a light chain, were inserted into a pET-21d+vector (Novagen, Merck) under T7 promoter, respectively. The resultant vector was introdyced into E. coli BL21 (DE3) pLysS, and expression of the gene was induced using IPTG. […]
This HLA-A*2402-W10 monomer was associated with PE-labeled SA at a molecular ratio of 4:1, thus preparing HLA tetramer. […] T cells were incubated with HLA-A*2402-W10 or HLA-A*2402-HER2-63 on ice for 1 hour and then analyzed by flow cytometry.
In general terms: Flow cytometry measures light scatter and fluorescence of single cells or particles in a stream.

In a further experiment the target is HLA-A*2402 molecule (Homo sapiens, UniProt P04439, D101N/D140Y/D185E/E176V/E190D/F33S/G103R/G107R/I119L/I121M/I306V/K335N/L105A/L180Q/L300P/N151K/N90K/Q86E/Q94H/R106L/R138H/R89G/T104I/T345S/V100E/W191G/Y123F). Description: Peptide binding to HLA-A*2402 molecule on C1R-A24 cells (flow cytometry, Kd). The note with it: HLA-A*2402, C1R-A24 cells; read-out: Binding assay data (−log Kd) (converted). As for the experimental part: The ability of a peptide to bind to an HLA-A*2402 molecule, which is a product of the HLA-A*2402 gene, was measured using C1R-A24 cells expressing the HLA-A*2402 molecule (cells generated by Professor Masafumi Takiguchi, Kumamoto University being supplied with permission by Associate Professor Masaki Yasukawa, Ehime University).
C1R-A24 cells were first exposed to acidic conditions at a pH of 3.3 for 30 seconds, thus dissociating and removing a β2m light chain, which is associated with HLA class I molecules in common, and an endogenous peptide originally bound to the HLA-A*2402 molecule. After neutralization, purified β2m was added to C1R-A24 cells, the obtained product was added to serial dilutions of a peptide, and incubated on ice for 4 hours. […]
Subsequently, the number of MHC-pep complexes per C1R-A24 cell (proportional to the intensity of fluorescence of the above-mentioned fluorescent antibody) was quantitatively measured using a FACScan fluorescence-activated flow cytometer (Becton Dickinson Biosciences). A dissociation constant Kd value between the HLA-A*2402 molecule and the peptide was calculated from the average intensity of fluorescence per cell by a method published in the literature (Udaka et al., Immunogenetics, 51, 816-828, 2000).

Where no end group is shown, it is not given here.

A word on the Kd: it is the constant that tells how readily two partners part at equilibrium. Take ALLPAVPSL [W10]: the “Peptide-reactive cytolytic cells in PBMCs of patients” value is reported as “contain cytolytic cells that recognize” in experiment [1] (HLA-A*0201 binding peptides, T2 targets); “cytolytic cells include those reactive” in experiment [1] (HLA-A*2402 binding peptides, FIG. 9a and b). Moreover, in experiment [2], the “W10-specific CD8 positive T cells (HLA-A24-W10 tetramer staining)” value is on record as “increased”. For the same sequence, the equilibrium dissociation constant (Kd) on HLA-A*2402 molecule is 0.692 nM.

Values taken from patent US20100255020A1, “METHOD FOR INDUCING CYTOTOXIC T-CELLS, CYTOTOXIC T-CELL INDUCERS, AND PHARMACEUTICAL COMPOSITIONS AND VACCINES EMPLOYING THEM” (NEC CORPORATION, priority 2007, published 2010).
